Experiments:
[1] = xn = mol fraction of the nth substance listed; conditions: 298.15 K, 101 kPa, Liquid, Vibrating tube method
[2] = 298.15 K; 101.33 kPa; Liquid; Vibrating tube method
[3] = excess molar enthalpy (molar enthalpy of mixing); xn = mol fraction of the nth substance listed; conditions: 298.15 K, 101 kPa, Liquid, Flow calorimetry

CCCO [propan-1-ol] + OCC(F)(F)F
Conditions | mass density [kg/m3]
[1], x2 = 0 | 799.3

CCO [ethanol]
Conditions | mass density [kg/m3]
[2] | 784.83

CCCO [propan-1-ol]
Conditions | mass density [kg/m3]
[2] | 799.3

CCO [ethanol] + OCC(F)(F)F
Conditions | mass density [kg/m3]
[1], x2 = 0 | 784.83

CO [methanol] + OCC(F)(F)F
Conditions | mass density [kg/m3]
[1], x2 = 0 | 786.3

OCC(F)(F)F [2,2,2-trifluoroethanol] + CCCO
Conditions | excess molar enthalpy [kcal/mol] | mass density [kg/m3]
[1], x1 = 0.00607 | – | 802.48
[1], x1 = 0.01063 | – | 804.92
[1], x1 = 0.02216 | – | 810.94
[1], x1 = 0.03141 | – | 815.81
[1], x1 = 0.1032 | – | 853.69
[1], x1 = 0.2022 | – | 906.48
[1], x1 = 0.3118 | – | 965.59
[1], x1 = 0.408 | – | 1018.5
[1], x1 = 0.5085 | – | 1075.13
[1], x1 = 0.6057 | – | 1131.49
[1], x1 = 0.7074 | – | 1192.38
[1], x1 = 0.8029 | – | 1251.85
[1], x1 = 0.9023 | – | 1316.56
[1], x1 = 0.9671 | – | 1360.54
[1], x1 = 0.9785 | – | 1368.42
[1], x1 = 0.9898 | – | 1376.24
[1], x1 = 0.9948 | – | 1379.83
[1], x1 = 1 | – | 1383.41
[3], x1 = 0.0054 | -0.00299 | –
[3], x1 = 0.0092 | -0.00578 | –
[3], x1 = 0.02045 | -0.0111 | –
[3], x1 = 0.03258 | -0.0163 | –
[3], x1 = 0.04077 | -0.0215 | –
[3], x1 = 0.051 | -0.026 | –
[3], x1 = 0.1013 | -0.0439 | –
[3], x1 = 0.2013 | -0.0642 | –
[3], x1 = 0.3023 | -0.0721 | –
[3], x1 = 0.4041 | -0.073 | –
[3], x1 = 0.4962 | -0.0645 | –
[3], x1 = 0.5974 | -0.0539 | –
[3], x1 = 0.6998 | -0.0417 | –
[3], x1 = 0.7987 | -0.0275 | –
[3], x1 = 0.9003 | -0.0137 | –
[3], x1 = 0.9108 | -0.0123 | –
[3], x1 = 0.9211 | -0.011 | –
[3], x1 = 0.9333 | -0.00978 | –
[3], x1 = 0.9409 | -0.00832 | –
[3], x1 = 0.9486 | -0.00703 | –
[3], x1 = 0.9577 | -0.00578 | –
[3], x1 = 0.9694 | -0.00409 | –
[3], x1 = 0.9839 | -0.00258 | –
[3], x1 = 0.9916 | -0.00108 | –
[3], x1 = 0.9961 | -0.000406 | –

OCC(F)(F)F [2,2,2-trifluoroethanol] + O
Conditions | excess molar enthalpy [kcal/mol] | mass density [kg/m3]
[1], x1 = 0.00478 | – | 1005.99
[1], x1 = 0.01029 | – | 1016.28
[1], x1 = 0.01855 | – | 1031.19
[1], x1 = 0.02226 | – | 1037.71
[1], x1 = 0.1002 | – | 1139.98
[1], x1 = 0.1985 | – | 1215.51
[1], x1 = 0.3 | – | 1265.59
[1], x1 = 0.3983 | – | 1298.93
[1], x1 = 0.4965 | – | 1322.87
[1], x1 = 0.5995 | – | 1341.54
[1], x1 = 0.7303 | – | 1359.16
[1], x1 = 0.839 | – | 1370.38
[1], x1 = 0.9062 | – | 1376.17
[1], x1 = 0.9696 | – | 1381.16
[1], x1 = 0.98 | – | 1381.89
[1], x1 = 0.9899 | – | 1382.59
[1], x1 = 0.995 | – | 1382.97
[1], x1 = 1 | – | 1383.41
[3], x1 = 0.00546 | -0.00688 | –
[3], x1 = 0.01088 | -0.013 | –
[3], x1 = 0.02028 | -0.0219 | –
[3], x1 = 0.0306 | -0.0252 | –
[3], x1 = 0.04018 | -0.0246 | –
[3], x1 = 0.04984 | -0.0225 | –
[3], x1 = 0.05985 | -0.0196 | –
[3], x1 = 0.07002 | -0.0159 | –
[3], x1 = 0.07952 | -0.0122 | –
[3], x1 = 0.08986 | -0.00791 | –
[3], x1 = 0.09937 | -0.00335 | –
[3], x1 = 0.11 | 0.000789 | –
[3], x1 = 0.1193 | 0.00528 | –
[3], x1 = 0.1299 | 0.0097 | –
[3], x1 = 0.1385 | 0.0143 | –
[3], x1 = 0.1486 | 0.0192 | –
[3], x1 = 0.1983 | 0.0424 | –
[3], x1 = 0.2988 | 0.08652 | –
[3], x1 = 0.3988 | 0.123 | –
[3], x1 = 0.4955 | 0.1497 | –
[3], x1 = 0.5989 | 0.1661 | –
[3], x1 = 0.7078 | 0.1649 | –
[3], x1 = 0.8079 | 0.1296 | –
[3], x1 = 0.898 | 0.073 | –
[3], x1 = 0.9054 | 0.0679 | –
[3], x1 = 0.9202 | 0.0573 | –
[3], x1 = 0.9301 | 0.0499 | –
[3], x1 = 0.9387 | 0.0447 | –
[3], x1 = 0.9528 | 0.0344 | –
[3], x1 = 0.9646 | 0.0249 | –
[3], x1 = 0.9732 | 0.0189 | –
[3], x1 = 0.988 | 0.00963 | –
[3], x1 = 0.9952 | 0.00335 | –

Reference: the NIST ThermoML archive (doi:10.1016/j.tca.2007.04.012)
